Measured values published in article PMC4350332 (Oncotarget, 2014).

Tests used:
[1] = target: PDK-1 (Homo sapiens, UniProt Q15118); test: PDK-1 fluorescence polarization assay (fluorescein-labelled ATP site probe); type: binding; parameters: PDK-1: residues 30-436; made in house; host or cells: E. coli BL21; conditions: titration with a probe concentration of 10 nM; read-out: Kd of PDK-1 protein with the probe
Method: carbamoyl]-2-(6-hydroxy-3-oxo-3H-xanthen-9-yl)benzoic acid), which binds to the ATP site of PDK resulting in an increase in anisotropy.
The HSP-90ß FP assay was conducted as previously described.

[2] = test system: PDK; conditions: stated in discussion, no own experiment; cited from earlier work

Sequence of PDK-1 (Q15118 30-436): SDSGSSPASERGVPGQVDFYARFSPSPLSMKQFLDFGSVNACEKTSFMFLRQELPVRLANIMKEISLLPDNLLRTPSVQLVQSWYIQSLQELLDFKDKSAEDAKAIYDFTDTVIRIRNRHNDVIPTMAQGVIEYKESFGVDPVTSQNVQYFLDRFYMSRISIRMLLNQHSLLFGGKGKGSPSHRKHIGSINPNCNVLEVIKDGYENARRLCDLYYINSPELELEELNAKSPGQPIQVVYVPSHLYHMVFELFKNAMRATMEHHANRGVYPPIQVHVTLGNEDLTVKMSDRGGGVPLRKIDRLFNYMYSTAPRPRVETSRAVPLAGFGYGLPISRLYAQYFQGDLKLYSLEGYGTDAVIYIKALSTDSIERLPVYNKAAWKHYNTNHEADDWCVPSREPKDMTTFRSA

CCNC(=O)c1noc(-c2cc(Cl)c(O)cc2O)c1-c1ccc(CNC(=O)c2ccc(-c3c4ccc(=O)cc-4oc4cc(O)ccc34)c(C(=O)O)c2)cc1 [VER-160364, 5-[({4-[5-(5-chloro-2,4-dihydroxyphenyl)-3-(ethylcarbamoyl)-1,2-oxazol-4-yl]phenyl}methyl)carbamoyl]-2-(6-hydroxy-3-oxo-3H-xanthen-9-yl)benzoic acid]
Kd [1]: 30 nM

O=C(O)C(Cl)Cl [DCA]
Concentrations required to observe modulation of glycolytic activity and cytotoxicity [2]: 5000 to 20000 µM
